Results reported in patent US20170152258A9, “Substituted Pyridopyrazines as Syk Inhibitors” (HUTCHISON MEDIPHARMA LIMITED, priority 2012, published 2017).

What was measured:
Syk kinase = Syk kinase (Homo sapiens, UniProt P43405); assay: SYK Enzymatic Assay (Z-LYTE Tyr 2 peptide); type: biochemical; settings: 8 concentrations 1 μM down to 0.0003 μM
Summary of the method: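 Z-LYTE format using Tyr 2 peptide. After the 1 h room-temperature kinase reaction, development reagent was added for 1 h, then stop reagent. Fluorescence was read at 445 and 520 nm. Compounds were tested at 8 concentrations, 1 μM down to 0.0003 μM (1:3 dilutions).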

RBL-2H3 cells = assay: IgE-induced Beta-hexosaminidase secretion in RBL-2H3 cells; type: cell-based; settings: DNP-BSA stimulation
Summary of the method: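 RBL-2H3 cells sensitized overnight with 0.5 ug/ml SPE-7 IgE, washed, preincubated with compound 20 min at 37° C, then stimulated with DNP-BSA (150 ng/mL stock) for 45 min. Released β-hexosaminidase measured on supernatant with 1 mM 4-nitrophenyl N-acetyl-β-D-glucosaminide, pH 4.5, 1.5 hr at 37° C; absorbance 405 nm after carbonate quench.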

[1] = Rattus norvegicus, RBL-2H3, IgE-induced Beta-hexosaminidase secretion
[2] = IgE-induced Beta-hexosaminidase secretion

Row | Compound | IC50 (Syk kinase) [nM] | IC50 (RBL-2H3 cells; [1]) [nM] | IC50 (RBL-2H3 cells; [2]) [nM]
1 | O=C(C(F)F)N1CCO[C@H](COc2nc(-c3ccc(C4CCOCC4)cc3)cc3nccnc23)C1 [Compound 9] | 98 | 127 | 
2 | CN(C)c1ccc(-c2cc3nccnc3c(OC[C@@H]3CN(C(=O)Cc4c[nH]cn4)CCO3)n2)cc1 [Compound 84] | 81 | 316 | 
3 | c1cnc2c(O[C@@H]3CCOC3)nc(-c3ccc(N4CCOCC4)cc3)cc2n1 [Compound 149] | 30 | 60 | 
4 | CC(=O)N1CCC(c2ccc(-c3cc4nccnc4c(O[C@@H]4CCOC4)n3)cc2)CC1 [Compound 156] | 38 | 32 | 
5 | CC(C)(C#N)c1ccc(-c2cc3nccnc3c(OC[C@@H]3CN(C(N)=O)CCO3)n2)cc1 [Compound 252] | 31 | 381 | 
6 | CC(=O)N1CCO[C@H](COc2nc(-c3ccc(C(C)(C)C#N)cc3)cc3nccnc23)C1 [Compound 248] | 88 | 54 | 
7 | Cc1cc(-c2cc3nccnc3c(OC[C@@H]3CNC(=O)C3)n2)ccc1N1CCOCC1 [Compound 224] | 48 | 103 | 
8 | CNC(=O)N1CCO[C@H](COc2nc(-c3ccc(OC)c(OC)c3)cc3nccnc23)C1 [Compound 143] | 80 | 244 | 
9 | Cc1cc(-c2cc3nccnc3c(O[C@@H]3CCOC3)n2)ccc1N(C)C [Compound 155] | 32 | 29 | 
10 | CC(=O)N1CCN(c2ccc(-c3cc4nccnc4c(O[C@@H]4CCOC4)n3)cc2)CC1 [Compound 152] | 33 | 48 | 
11 | CCc1ccc(-c2cc3nccnc3c(OC[C@@H]3CN(C(=O)NC)CCO3)n2)cc1 [Compound 222] | 84 | 105 | 
12 | CN(C)c1ccc(-c2cc3nccnc3c(OC3CCCOC3)n2)cc1 (stereo not shown) [Compound 127] | 58 | 77 | 
13 | CC(C)(O)c1ccc(-c2cc3nccnc3c(OC[C@@H]3CN(C(N)=O)CCO3)n2)cc1 [Compound 266] | 44 | 1090 | 
14 | N#CC1(c2ccc(-c3cc4nccnc4c(OC[C@@H]4CN(C(N)=O)CCO4)n3)cc2)CCC1 [Compound 290] | 50 | 374 | 467
15 | COC1CCN(c2ccc(-c3cc4nccnc4c(OC[C@@H]4CN(C(C)=O)CCO4)n3)cc2)CC1 [Compound 48] | 87 | 136 | 
16 | Cc1cc(-c2cc3nccnc3c(O[C@@H]3CCOC3)n2)ccc1N1CCN(S(C)(=O)=O)CC1 [Compound 210] | 30 | 32 | 

Row | Compound | IC50 (Syk kinase) [nM] | IC50 (RBL-2H3 cells; [1]) [nM] | IC50 (RBL-2H3 cells; [2]) [nM]
17 | CN(C)c1ccc(-c2cc3nccnc3c(OC[C@@H]3CN(C(=O)C(F)F)CCO3)n2)cc1F [Compound 32] | 60 | 76 | 
18 | CCC(O)(CC)c1ccc(-c2cc3nccnc3c(OC[C@@H]3CN(S(C)(=O)=O)CCO3)n2)cc1 [Compound 279] | 35 | 87 | 
19 | CN(C)c1ccc(-c2cc3nccnc3c(OC[C@@H]3CN(C(=O)CC4CC4)CCO3)n2)cc1 [Compound 70] | 99 | 213 | 
20 | CC(C)(O)C1CCN(c2ccc(-c3cc4nccnc4c(O[C@@H]4CCOC4)n3)cc2)CC1 [Compound 228] | 28 | 39 | 
21 | CCN1CCN(c2ccc(-c3cc4nccnc4c(OC[C@@H]4CN(C(=O)C(F)F)CCO4)n3)cc2)CC1 [Compound 17] | 32 | 56 | 
22 | O=C1C[C@H](COc2nc(-c3ccc(N4CCOCC4)cc3)cc3nccnc23)CN1 [Compound 223] | 57 | 121 | 
23 | CNC(=O)N1CCO[C@H](COc2nc(-c3ccc(N(C)C)c(Cl)c3)cc3nccnc23)C1 [Compound 166] | 52 | 71 | 
24 | CS(=O)(=O)N1CCC(c2ccc(-c3cc4nccnc4c(OC[C@@H]4CN(S(C)(=O)=O)CCO4)n3)cc2)CC1 [Compound 57, (S)-4-(methylsulfonyl)-2-((7-(4-(1-(methylsulfonyl)piperidin-4-yl)phenyl)pyrido[4,3-b]pyrazin-5-yloxy)methyl)morpholine] | 14 | 82 | 
25 | CNc1ccc(-c2cc3nccnc3c(O[C@@H]3CCOC3)n2)cc1 [Compound 133] | 45 | 24 | 
26 | CC(=O)N1CCO[C@H](COc2nc(-c3ccc(N(C)C)c(F)c3)cc3nccnc23)C1 [Compound 139] | 95 | 119 | 194
27 | CN(CC#N)CCS(=O)(=O)N1CCO[C@H](COc2nc(-c3ccc(N(C)C)cc3)cc3nccnc23)C1 [Compound 104] | 38 | 127 | 
28 | CS(=O)(=O)N1CCC(c2ccc(-c3cc4nccnc4c(O[C@@H]4CCOC4)n3)cc2)CC1 [Compound 124] | 33 | 45 | 
29 | CN1CCOC(COc2nc(-c3ccc(C4CCN(S(C)(=O)=O)CC4)cc3)cc3nccnc23)C1=O (stereo not shown) [Compound 315] | 103 | 123 | 
30 | C[C@H](O)C(=O)N1CCO[C@H](COc2nc(-c3ccc(N(C)C)cc3)cc3nccnc23)C1 [Compound 197] | 85 | 81 | 
31 | CN(C)c1ccc(-c2cc3nccnc3c(OC[C@@H]3CN(C(=O)N4CCC4)CCO3)n2)cc1 [Compound 199, (S)-azetidin-1-yl(2-(((7-(4-(dimethylamino)phenyl)pyrido[3,4-b]pyrazin-5-yl)oxy)methyl)morpholino)methanone] | 88 | 211 | 
32 | CC(=O)N1CCO[C@H](COc2nc(-c3cc(C)c(N(C)C)c(C)c3)cc3nccnc23)C1 [Compound 161] | 151 | 108 | 

Next, values leading:

Row | IC50 (Syk kinase) [nM] | IC50 (RBL-2H3 cells; [1]) [nM] | IC50 (RBL-2H3 cells; [2]) [nM] | Compound
33 | 17 | 57 |  | CN1CCCc2cc(-c3cc4nccnc4c(OC[C@@H]4CN(C(N)=O)CCO4)n3)ccc21 [Compound 209]
34 | 15 | 22 | 40 | CN(C)c1ccc(-c2cc3nccnc3c(OC[C@@H]3CN(S(C)(=O)=O)CCO3)n2)cc1 [Compound 94]
35 | 44 | 248 |  | CCC(O)(CC)c1ccc(-c2cc3nccnc3c(OC[C@@H]3CN(S(N)(=O)=O)CCO3)n2)cc1 [Compound 283]
36 | 14 | 127 |  | CC(=O)N1CC(C)(c2ccc(-c3cc4nccnc4c(OC[C@@H]4CN(S(C)(=O)=O)CCO4)n3)cc2)C1 [Compound 321]
37 | 41 | 66 |  | CS(=O)(=O)N1CCO[C@H](COc2nc(-c3ccc(N4CCC(F)(F)CC4)cc3)cc3nccnc23)C1 [Compound 20]
38 | 96 | 207 |  | CC(C)S(=O)(=O)N1CCO[C@H](COc2nc(-c3ccc(N(C)C)cc3)cc3nccnc23)C1 [Compound 89]
39 | 11 | 39 |  | Cc1cc(-c2cc3nccnc3c(OC[C@@H]3CN(S(N)(=O)=O)CCO3)n2)ccc1N(C)C [Compound 188]
40 | 117 | 119 |  | CS(=O)(=O)N1CCO[C@H](COc2nc(-c3ccc4ncccc4c3)cc3nccnc23)C1 [Compound 111]
41 | 33 | 94 |  | CC1(c2ccc(-c3cc4nccnc4c(OC[C@@H]4CN(S(C)(=O)=O)CCO4)n3)cc2)COC1 [Compound 317]
42 | 81 | 114 |  | CC(=O)N1CCO[C@H](COc2nc(-c3ccc(N4CCN(C)CC4)c(C)c3)cc3nccnc23)C1 [Compound 186]
43 | 16 | 73 |  | CC(C)(O)C1CCN(c2ccc(-c3cc4nccnc4c(OC[C@@H]4CN(S(C)(=O)=O)CCO4)n3)cc2)CC1 [Compound 22]
44 | 26 | 27 |  | CN(C)c1ccc(-c2cc3nccnc3c(OC[C@@H]3CN(S(C)(=O)=O)CCO3)n2)cn1 [Compound 218]
45 | 38 | 108 |  | CN(C)c1ccc(-c2cc3nccnc3c(OC[C@@H]3CN(S(=O)(=O)CCN4CC[C@@H](O)C4)CCO3)n2)cc1 [Compound 102]
46 | 48 | 113 |  | CN1CCC(c2ccc(-c3cc4nccnc4c(OC[C@@H]4CN(S(C)(=O)=O)CCO4)n3)cc2)CC1 [Compound 8]
47 | 97 | 194 |  | CC(C)(C)C(O)c1ccc(-c2cc3nccnc3c(OC[C@@H]3CN(S(C)(=O)=O)CCO3)n2)cc1 (stereo partly shown) [Compound 284]
48 | 25 | 40 |  | CN1CCN(c2ccc(-c3cc4nccnc4c(OC[C@@H]4CN(S(C)(=O)=O)CCO4)n3)cc2)CC1 [Compound 13]
49 | 17 | 174 |  | CC(C)(C(=O)O)c1ccc(-c2cc3nccnc3c(OC[C@@H]3CN(S(C)(=O)=O)CCO3)n2)cc1 [Compound 318]
50 | 61 | 41 |  | Cn1ccc2ccc(-c3cc4nccnc4c(OC[C@@H]4CN(S(C)(=O)=O)CCO4)n3)cc21 [Compound 120]
51 | 40 | 59 |  | CS(=O)(=O)N1CCO[C@H](COc2nc(-c3ccc(C4(C#N)CC4)cc3)cc3nccnc23)C1 [Compound 274]
52 | 24 | 107 |  | CC1(C)OCCc2cc(-c3cc4nccnc4c(OC[C@@H]4CN(C(N)=O)CCO4)n3)ccc21 [Compound 301]
53 | 58 | 78 |  | CNS(=O)(=O)N1CCO[C@H](COc2nc(-c3ccc(N(C)C)cc3)cc3nccnc23)C1 [Compound 211]
54 | 26 | 92 |  | CS(=O)(=O)N1CCO[C@H](COc2nc(-c3ccc(C4(C#N)CCC4)cc3)cc3nccnc23)C1 [Compound 282]
55 | 13 | 20 |  | CN1CCCc2cc(-c3cc4nccnc4c(OC[C@@H]4CN(S(N)(=O)=O)CCO4)n3)ccc21 [Compound 208]
56 | 83 | 278 |  | COc1ccc(-c2cc3nccnc3c(OC[C@@H]3CN(S(C)(=O)=O)CCO3)n2)cc1 [Compound 38]
